Experimental data published in publication PMC11378298 (ACS Chemical Neuroscience, 2024).

Columns and labels:
[1] = molecular target: T1, CDK1/cyclinB (Homo sapiens, UniProt P06493); assay: Kinase selectivity, radiometric [Km ATP] KinaseProfiler; assay type: biochemical
T1 construct: purchased Eurofins (KinaseProfiler service)
Protocol: (§1) We selected those kinases with the greatest potential for interaction based on structural homology, as indicated by the ChemPartner panel.
(§2) Figure 7 Kinase selectivity for compound 36. Data are presented as percent of kinases’ activity in the presence of 1 μM of compound 36. Kinases’ panel (CMGC group, human enzymes): CDK1/cyclinB, CDK2/cyclinA, CDK4/cyclinD3, CDK6/cyclinD3, CDK7/cyclinH/MAT1, CDK9/cyclinT1, DYRK1A, DYRK1B, GSK-3α, GSK-3β, JNK2α2, JNK3, MAPK1, MAPK2, SAPK2a(T106M), SAPK2b, SAPK3.
(§3) Selectivity studies were performed at Eurofins in Kinase Enzymatic Radiometric [Km ATP]
(§4) Kinase Profiler Lead Hunter Assay. The percentage of enzymatic activity was measured at the
(§5) concentration of 1 µM of compound 36 in duplicate for 17 selected kinases.
(§6) Table S12. Inhibitory activity of compound 36 against selected kinases.
(§7) *Where n = 2, the value reported here is actually range / √ 2.

[2] = molecular target: T2, CDK2/cyclinA (Homo sapiens, UniProt P24941); assay: as above; assay type: biochemical
T2 construct: purchased Eurofins (KinaseProfiler service)
Protocol: as §1, §2, §3, §4, §5, §6, §7

[3] = molecular target: T3, CDK4/cyclinD3 (Homo sapiens, UniProt P11802); assay: as above; assay type: biochemical
T3 construct: purchased Eurofins (KinaseProfiler service)
T3 sequence (P11802 whole entry): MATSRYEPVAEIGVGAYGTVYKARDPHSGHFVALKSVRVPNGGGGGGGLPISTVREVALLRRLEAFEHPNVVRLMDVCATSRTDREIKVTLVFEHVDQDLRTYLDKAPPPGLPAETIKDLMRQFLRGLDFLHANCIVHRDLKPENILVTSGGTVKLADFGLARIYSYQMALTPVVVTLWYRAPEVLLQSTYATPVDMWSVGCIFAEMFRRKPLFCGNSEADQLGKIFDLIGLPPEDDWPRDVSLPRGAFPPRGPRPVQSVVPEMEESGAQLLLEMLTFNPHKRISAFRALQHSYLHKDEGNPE
T3 sequence (P30281 whole entry partner): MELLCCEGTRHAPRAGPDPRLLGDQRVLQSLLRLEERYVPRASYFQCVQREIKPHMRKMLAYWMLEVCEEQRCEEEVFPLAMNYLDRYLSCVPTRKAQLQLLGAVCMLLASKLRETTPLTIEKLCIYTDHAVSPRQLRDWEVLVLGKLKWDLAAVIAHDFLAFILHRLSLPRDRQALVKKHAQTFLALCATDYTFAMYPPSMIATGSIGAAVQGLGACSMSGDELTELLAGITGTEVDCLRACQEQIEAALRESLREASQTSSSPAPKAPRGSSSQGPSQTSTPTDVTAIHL
Protocol: as §1, §2, §3, §4, §5, §6, §7

[4] = molecular target: T4, CDK6/cyclinD3 (Homo sapiens, UniProt Q00534); assay: as above; assay type: biochemical
T4 construct: purchased Eurofins (KinaseProfiler service)
T4 sequence (Q00534 whole entry): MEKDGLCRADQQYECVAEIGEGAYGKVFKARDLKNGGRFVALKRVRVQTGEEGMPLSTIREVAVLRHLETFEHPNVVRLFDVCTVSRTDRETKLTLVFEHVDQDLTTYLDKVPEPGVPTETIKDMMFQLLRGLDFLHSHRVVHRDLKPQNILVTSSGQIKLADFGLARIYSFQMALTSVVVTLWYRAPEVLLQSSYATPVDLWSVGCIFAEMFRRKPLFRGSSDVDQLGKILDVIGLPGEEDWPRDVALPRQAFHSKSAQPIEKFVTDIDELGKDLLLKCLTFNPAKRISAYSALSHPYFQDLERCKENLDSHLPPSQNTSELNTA
T4 sequence (P30281 whole entry partner): as the sequence (P30281 whole entry partner) above
Protocol: as §1, §2, §3, §4, §5, §6, §7

[5] = molecular target: T5, CDK7/cyclinH/MAT1 (Homo sapiens, UniProt P50613); assay: as above; assay type: biochemical
T5 construct: purchased Eurofins (KinaseProfiler service)
Protocol: as §1, §2, §3, §4, §5, §6, §7

[6] = molecular target: T6, CDK9/cyclin T1 (Homo sapiens, UniProt P50750); assay: as above; assay type: biochemical
T6 construct: purchased Eurofins (KinaseProfiler service)
T6 sequence (P50750 whole entry): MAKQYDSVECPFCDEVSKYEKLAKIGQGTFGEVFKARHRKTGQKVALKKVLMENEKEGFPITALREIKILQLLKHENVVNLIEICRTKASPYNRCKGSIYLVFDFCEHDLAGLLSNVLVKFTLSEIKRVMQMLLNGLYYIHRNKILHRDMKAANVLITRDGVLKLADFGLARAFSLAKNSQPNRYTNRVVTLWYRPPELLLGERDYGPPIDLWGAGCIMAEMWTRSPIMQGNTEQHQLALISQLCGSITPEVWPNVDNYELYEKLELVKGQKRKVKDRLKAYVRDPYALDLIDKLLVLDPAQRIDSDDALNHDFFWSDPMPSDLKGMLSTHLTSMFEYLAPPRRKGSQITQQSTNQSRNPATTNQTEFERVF
T6 sequence (O60563 whole entry partner): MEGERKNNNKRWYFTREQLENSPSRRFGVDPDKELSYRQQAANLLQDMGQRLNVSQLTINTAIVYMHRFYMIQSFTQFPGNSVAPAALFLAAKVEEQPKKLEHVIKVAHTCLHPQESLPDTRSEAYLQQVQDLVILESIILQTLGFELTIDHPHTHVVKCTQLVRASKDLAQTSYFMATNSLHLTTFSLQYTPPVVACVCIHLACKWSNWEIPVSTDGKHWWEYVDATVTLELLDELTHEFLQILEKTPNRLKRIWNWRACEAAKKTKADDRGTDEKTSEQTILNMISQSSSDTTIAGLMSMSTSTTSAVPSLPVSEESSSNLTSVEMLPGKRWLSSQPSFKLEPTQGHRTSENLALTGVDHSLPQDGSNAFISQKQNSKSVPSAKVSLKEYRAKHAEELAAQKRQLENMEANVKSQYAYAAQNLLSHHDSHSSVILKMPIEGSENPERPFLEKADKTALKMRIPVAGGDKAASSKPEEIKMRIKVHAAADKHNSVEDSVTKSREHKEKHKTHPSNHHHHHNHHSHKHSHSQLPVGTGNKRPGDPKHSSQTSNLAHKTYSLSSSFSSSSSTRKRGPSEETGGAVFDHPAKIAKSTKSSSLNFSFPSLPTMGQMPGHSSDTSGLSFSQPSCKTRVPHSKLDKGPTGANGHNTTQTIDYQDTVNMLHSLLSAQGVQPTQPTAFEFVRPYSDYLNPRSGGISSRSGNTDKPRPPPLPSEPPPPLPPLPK
Protocol: as §1, §2, §3, §4, §5, §6, §7

[7] = molecular target: T7, DYRK1A (Homo sapiens, UniProt Q13627); assay: as above; assay type: biochemical; settings: duplicate
T7 construct: purchased Eurofins (KinaseProfiler service)
Protocol: as §1, §2, §3, §4, §5, §6, §7

[8] = molecular target: T8, DYRK1B (Homo sapiens, UniProt Q9Y463); assay: as above; assay type: biochemical; settings: duplicate
T8 construct: purchased Eurofins (KinaseProfiler service)
Protocol: as §1, §2, §3, §4, §5, §6, §7

[9] = molecular target: T9, GSK-3α (Homo sapiens, UniProt P49840); assay: as above; assay type: biochemical; settings: duplicate
T9 construct: purchased Eurofins (KinaseProfiler service)
Protocol: as §1, §2, §3, §4, §5, §6, §7

[10] = molecular target: T10, JNK2α2 (Homo sapiens, UniProt P45984); assay: as above; assay type: biochemical
T10 construct: purchased Eurofins (KinaseProfiler service)
T10 sequence (P45984 whole entry): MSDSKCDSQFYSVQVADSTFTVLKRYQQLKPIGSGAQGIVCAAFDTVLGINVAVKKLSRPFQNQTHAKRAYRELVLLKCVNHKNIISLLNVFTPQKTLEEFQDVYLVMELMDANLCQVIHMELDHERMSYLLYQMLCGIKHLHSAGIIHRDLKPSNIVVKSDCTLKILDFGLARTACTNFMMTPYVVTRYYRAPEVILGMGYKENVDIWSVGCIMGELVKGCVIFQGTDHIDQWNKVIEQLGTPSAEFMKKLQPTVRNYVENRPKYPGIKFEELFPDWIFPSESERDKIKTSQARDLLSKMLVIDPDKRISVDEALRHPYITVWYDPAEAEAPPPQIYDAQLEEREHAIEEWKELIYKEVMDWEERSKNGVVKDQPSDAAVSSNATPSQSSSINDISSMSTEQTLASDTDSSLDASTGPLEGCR
Protocol: as §1, §2, §3, §4, §5, §6, §7

[11] = molecular target: T11, JNK3 (Homo sapiens, UniProt P53779); assay: as above; assay type: biochemical
T11 construct: purchased Eurofins (KinaseProfiler service)
T11 sequence (P53779 whole entry): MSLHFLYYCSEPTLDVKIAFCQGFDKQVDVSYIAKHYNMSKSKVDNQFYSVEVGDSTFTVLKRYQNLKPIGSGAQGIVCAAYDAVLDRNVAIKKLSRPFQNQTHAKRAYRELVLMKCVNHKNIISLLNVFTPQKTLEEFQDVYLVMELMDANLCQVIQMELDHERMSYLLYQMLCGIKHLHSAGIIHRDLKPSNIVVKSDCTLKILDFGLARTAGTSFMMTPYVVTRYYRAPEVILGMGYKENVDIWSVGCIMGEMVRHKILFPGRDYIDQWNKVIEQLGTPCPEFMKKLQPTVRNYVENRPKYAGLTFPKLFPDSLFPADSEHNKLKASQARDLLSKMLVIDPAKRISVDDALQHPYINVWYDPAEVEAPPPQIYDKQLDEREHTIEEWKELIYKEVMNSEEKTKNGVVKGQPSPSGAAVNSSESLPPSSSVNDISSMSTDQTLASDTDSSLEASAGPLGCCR
Protocol: as §1, §2, §3, §4, §5, §6, §7

[12] = molecular target: T12, MAPK1 (Homo sapiens, UniProt P27361); assay: as above; assay type: biochemical
T12 construct: purchased Eurofins (KinaseProfiler service)
Protocol: as §1, §2, §3, §4, §5, §6, §7

[13] = molecular target: T13, MAPK2 (Homo sapiens, UniProt P28482); assay: as above; assay type: biochemical
T13 construct: purchased Eurofins (KinaseProfiler service)
T13 sequence (P28482 whole entry): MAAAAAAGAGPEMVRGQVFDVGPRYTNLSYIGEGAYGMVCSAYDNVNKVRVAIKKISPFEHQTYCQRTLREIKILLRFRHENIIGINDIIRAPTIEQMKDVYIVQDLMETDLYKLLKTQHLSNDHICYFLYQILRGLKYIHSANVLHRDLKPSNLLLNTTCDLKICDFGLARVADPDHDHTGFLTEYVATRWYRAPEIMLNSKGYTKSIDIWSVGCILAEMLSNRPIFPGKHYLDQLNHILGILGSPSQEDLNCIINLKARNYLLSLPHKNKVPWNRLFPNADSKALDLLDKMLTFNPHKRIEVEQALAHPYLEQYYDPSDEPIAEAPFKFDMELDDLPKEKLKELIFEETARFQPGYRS
Protocol: as §1, §2, §3, §4, §5, §6, §7

[14] = molecular target: T14, SAPK2a(T106M) (Homo sapiens, UniProt Q16539, T106M); assay: as above; assay type: biochemical
T14 construct: purchased Eurofins (KinaseProfiler service)
T14 sequence (Q16539 whole entry T106M): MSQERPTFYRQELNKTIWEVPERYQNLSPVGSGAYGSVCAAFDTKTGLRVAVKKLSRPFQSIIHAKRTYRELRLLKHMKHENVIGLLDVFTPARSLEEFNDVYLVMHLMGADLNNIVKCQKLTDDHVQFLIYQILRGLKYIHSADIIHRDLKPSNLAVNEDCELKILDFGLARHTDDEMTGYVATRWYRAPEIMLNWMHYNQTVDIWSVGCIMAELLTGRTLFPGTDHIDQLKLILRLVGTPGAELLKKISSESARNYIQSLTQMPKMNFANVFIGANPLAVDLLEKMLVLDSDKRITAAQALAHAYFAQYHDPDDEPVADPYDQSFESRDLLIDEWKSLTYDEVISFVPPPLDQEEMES
Protocol: as §1, §2, §3, §4, §5, §6, §7

[15] = molecular target: T15, SAPK2b (Homo sapiens, UniProt Q15759); assay: as above; assay type: biochemical
T15 construct: purchased Eurofins (KinaseProfiler service)
T15 sequence (Q15759 whole entry): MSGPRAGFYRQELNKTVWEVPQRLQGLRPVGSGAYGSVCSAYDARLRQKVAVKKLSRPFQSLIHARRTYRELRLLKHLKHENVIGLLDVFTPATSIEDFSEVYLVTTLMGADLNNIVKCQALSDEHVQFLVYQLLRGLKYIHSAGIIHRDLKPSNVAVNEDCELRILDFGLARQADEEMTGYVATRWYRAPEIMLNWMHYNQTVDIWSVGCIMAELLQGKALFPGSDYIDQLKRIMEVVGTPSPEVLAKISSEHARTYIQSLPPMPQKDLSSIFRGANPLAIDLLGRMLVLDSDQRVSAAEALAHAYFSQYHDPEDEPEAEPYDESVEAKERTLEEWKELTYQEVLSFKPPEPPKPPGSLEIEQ
Protocol: as §1, §2, §3, §4, §5, §6, §7

[16] = molecular target: T16, SAPK3 (Homo sapiens, UniProt P53778); assay: as above; assay type: biochemical
T16 construct: purchased Eurofins (KinaseProfiler service)
T16 sequence (P53778 whole entry): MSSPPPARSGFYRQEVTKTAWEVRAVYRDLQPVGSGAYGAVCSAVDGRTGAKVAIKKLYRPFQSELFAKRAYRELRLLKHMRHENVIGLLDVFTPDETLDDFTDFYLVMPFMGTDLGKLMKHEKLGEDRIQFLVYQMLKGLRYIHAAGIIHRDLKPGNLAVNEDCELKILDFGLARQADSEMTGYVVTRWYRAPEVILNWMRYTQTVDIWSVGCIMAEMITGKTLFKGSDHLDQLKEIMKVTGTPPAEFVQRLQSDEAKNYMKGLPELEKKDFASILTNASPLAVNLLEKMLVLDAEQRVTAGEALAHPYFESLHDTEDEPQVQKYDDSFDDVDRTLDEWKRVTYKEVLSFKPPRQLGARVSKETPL
Protocol: as §1, §2, §3, §4, §5, §6, §7

[17] = molecular target: T17, GSK-3β (Homo sapiens, UniProt P49841); assay: biochemical
T17 sequence (P49841 whole entry): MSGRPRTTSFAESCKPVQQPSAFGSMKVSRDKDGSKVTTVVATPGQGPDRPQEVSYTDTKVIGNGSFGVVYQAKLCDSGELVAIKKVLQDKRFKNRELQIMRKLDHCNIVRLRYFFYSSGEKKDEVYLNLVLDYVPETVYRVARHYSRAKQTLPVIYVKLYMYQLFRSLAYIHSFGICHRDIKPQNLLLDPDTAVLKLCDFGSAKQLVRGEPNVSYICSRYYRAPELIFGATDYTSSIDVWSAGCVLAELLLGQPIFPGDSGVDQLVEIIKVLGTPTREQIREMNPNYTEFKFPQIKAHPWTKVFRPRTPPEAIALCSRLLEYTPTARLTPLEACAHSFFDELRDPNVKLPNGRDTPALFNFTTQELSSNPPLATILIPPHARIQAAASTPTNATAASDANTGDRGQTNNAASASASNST
Protocol: as §1, §2, §3, §4, §5, §6, §7

[18] = molecular target: T17, GSK-3β; assay: Kinetics of GSK-3β inhibition (ADP-Glo, varied ATP); assay type: biochemical; set-up: purchased Promega
From the text: Each data point was collected in triplicate.
Kinetics of GSK-3β inhibition by compound 36
diverse ATP concentrations to determine the mechanism of enzyme - inhibitor interaction. The
(1 picture or pasted object on this page, not shown here) […]

Which inhibition at 1 µM [1] does the source give for `O=C(Nc1cc(-c2ccc(-c3ncon3)s2)ccn1)C1CC1` [Compound 36, N-(4-(5-(1,2,4-Oxadiazol-3-yl)thiophen-2-yl)pyridin-2-yl)cyclopropanecarboxamide] here?
The inhibition at 1 µM was 58%.

What about the “% of enzyme activity at 1μM of 36 ±SD, CDK1/cyclinB” value ([1]; duplicate) of the same molecule?
Its value is 42±4%.

What about the inhibition at 1 µM [2] of the same molecule?
Its inhibition at 1 µM is 63%.

What about the “% of enzyme activity at 1μM of 36 ±SD, CDK2/cyclinA” value ([2]; duplicate) of the same molecule?
The value was 37±1%.

What about the inhibition at 1 µM [3] of the same molecule?
Its inhibition at 1 µM is < 50%.

And the “% of enzyme activity at 1μM of 36 ±SD, CDK4/cyclinD3” value ([3]; duplicate)?
The value was 97±9%.

What about the inhibition at 1 µM [4] of the same molecule?
Its inhibition at 1 µM is < 50%.

And the “% of enzyme activity at 1μM of 36 ±SD, CDK6/cyclinD3” value ([4]; duplicate)?
The value was 90±1%.

And the inhibition at 1 µM [5]?
Its inhibition at 1 µM is < 50%.

And the “% of enzyme activity at 1μM of 36 ±SD, CDK7/cyclinH/ MAT1” value ([5]; duplicate)?
The value was 93±7%.

What about the inhibition at 1 µM [6] of the same molecule?
The inhibition at 1 µM was 84%.

What about the “% of enzyme activity at 1μM of 36 ±SD, CDK9/cyclin T1” value ([6]; duplicate) of the same molecule?
Its value is 16±2%.

And the “% of enzyme activity at 1μM of 36 ±SD, DYRK1A” value [7]?
Its value is 11±1%.

What about the “% of enzyme activity at 1μM of 36 ±SD, DYRK1B” value [8] of the same molecule?
The value was 26±6%.

And the “% of enzyme activity at 1μM of 36 ±SD, GSK-3α” value [9]?
Its value is 2±1%.

What about the inhibition at 1 µM [10] of the same molecule?
Its inhibition at 1 µM is < 50%.

And the “% of enzyme activity at 1μM of 36 ±SD, JNK2α2” value ([10]; duplicate)?
Its value is 100±7%.

And the inhibition at 1 µM [11]?
Its inhibition at 1 µM is < 50%.

And the “% of enzyme activity at 1μM of 36 ±SD, JNK3” value ([11]; duplicate)?
Its value is 73±6%.

What about the inhibition at 1 µM [12] of the same molecule?
The inhibition at 1 µM was < 50%.

What about the “% of enzyme activity at 1μM of 36 ±SD, MAPK1” value ([12]; duplicate) of the same molecule?
Its value is 100±1%.

What about the inhibition at 1 µM [13] of the same molecule?
Its inhibition at 1 µM is < 50%.

And the “% of enzyme activity at 1μM of 36 ±SD, MAPK2” value ([13]; duplicate)?
The value was 98±6%.

And the inhibition at 1 µM [14]?
The inhibition at 1 µM was < 50%.

What about the “% of enzyme activity at 1μM of 36 ±SD, SAPK2a(T106M)” value ([14]; duplicate) of the same molecule?
Its value is 95±7%.

What about the inhibition at 1 µM [15] of the same molecule?
The inhibition at 1 µM was < 50%.

What about the “% of enzyme activity at 1μM of 36 ±SD, SAPK2b” value ([15]; duplicate) of the same molecule?
The value was 100±2%.

What about the “% of enzyme activity at 1μM of 36 ±SD, SAPK3” value ([16]; 1 μM, duplicate) of the same molecule?
Its value is 50±3%.

What about the inhibition at 1 µM ([16]; read-out: inhibition of SAPK3) of the same molecule?
The inhibition at 1 µM was < 50%.

And the “% of enzyme activity at 1μM of 36 ±SD, GSK-3β” value ([17]; 1 μM, duplicate)?
Its value is 5±1%.

And the inhibition at 1 µM ([17]; read-out: inhibition of GSK-3β)?
Its inhibition at 1 µM is 92%.

What about the Ki [18] of the same molecule?
The Ki was 60.3 nM.

And the type of inhibition ([18]; Lineweaver–Burk and Cornish–Bowden plots, varied ATP)?
The type of inhibition was “ATP-competitive”.
